Assay results: PubChem BioAssay AID248 (DTP/NCI, 2004)
“And” between values parts separate entries of the source, which are not always exact repeats. Equal entries are not always repeated. Inconclusive results and toxic doses are left out.

Test system: L1210 leukemia ip in BDF1 mice, survival T/C
Test: NCI In Vivo Anticancer Drug Screen. Data for tumor model L1210 Leukemia (intraperitoneal) in B6D2F1 (BDF1) mice
Details: endpoint: mean survival time, higher = longer survival
In short: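 Survival endpoint. Drug-treated group vs vehicle group, expressed as T divided by C. Tumor passaged by transplantation.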

[1] = dose: 100.0 mg/kg/injection, schedule: Q01DX009 (ip), vehicle: Klucel (hydroxypropylcellulose) (HPC)
[2] = dose: 100.0 mg/kg/injection, schedule: Q04DX003 (ip), vehicle: Klucel (hydroxypropylcellulose) (HPC)
[3] = dose: 200.0 mg/kg/injection, schedule: Q01DX009 (ip), vehicle: Klucel (hydroxypropylcellulose) (HPC)
[4] = dose: 200.0 mg/kg/injection, schedule: Q04DX003 (ip), vehicle: Klucel (hydroxypropylcellulose) (HPC)
[5] = dose: 400.0 mg/kg/injection, schedule: Q01DX009 (ip), vehicle: Klucel (hydroxypropylcellulose) (HPC)
[6] = dose: 400.0 mg/kg/injection, schedule: Q04DX003 (ip), vehicle: Klucel (hydroxypropylcellulose) (HPC)
[7] = dose: 12.5 mg/kg/injection, schedule: Q01DX009 (ip), vehicle: saline
[8] = dose: 25.0 mg/kg/injection, schedule: Q01DX009 (ip), vehicle: saline
[9] = dose: 25.0 mg/kg/injection, schedule: Q04DX003 (ip), vehicle: saline
[10] = dose: 50.0 mg/kg/injection, schedule: Q01DX009 (ip), vehicle: saline
[11] = dose: 50.0 mg/kg/injection, schedule: Q04DX003 (ip), vehicle: saline
[12] = dose: 100.0 mg/kg/injection, schedule: Q01DX009 (ip), vehicle: saline
[13] = dose: 100.0 mg/kg/injection, schedule: Q04DX003 (ip), vehicle: saline
[14] = dose: 200.0 mg/kg/injection, schedule: Q01DX009 (ip), vehicle: saline
[15] = dose: 100.0 mg/kg/injection, schedule: Q01DX001 (ip), vehicle: saline
[16] = dose: 200.0 mg/kg/injection, schedule: Q01DX001 (ip), vehicle: saline
[17] = dose: 400.0 mg/kg/injection, schedule: Q01DX001 (ip), vehicle: saline
[18] = dose: 100.0 mg/kg/injection, schedule: Q01DX001 (ip), vehicle: carboxymethylcellulose (CMC)
[19] = dose: 200.0 mg/kg/injection, schedule: Q01DX001 (ip), vehicle: carboxymethylcellulose (CMC)
[20] = dose: 400.0 mg/kg/injection, schedule: Q01DX001 (ip), vehicle: carboxymethylcellulose (CMC)
[21] = dose: 200.0 mg/kg/injection, schedule: Q04DX003 (ip), vehicle: saline
[22] = dose: 50.0 mg/kg/injection, schedule: Q04DX003 (ip), vehicle: Klucel (hydroxypropylcellulose) (HPC)
[23] = dose: 50.0 mg/kg/injection, schedule: Q01DX009 (ip), vehicle: Klucel (hydroxypropylcellulose) (HPC)
[24] = dose: 400.0 mg/kg/injection, schedule: Q04DX003 (ip), vehicle: saline
[25] = dose: 100.0 mg/kg/injection, schedule: Q04DX002 (ip), vehicle: Klucel (hydroxypropylcellulose) (HPC)
[26] = dose: 200.0 mg/kg/injection, schedule: Q04DX002 (ip), vehicle: Klucel (hydroxypropylcellulose) (HPC)

## Cc1cccc(C)c1NC(=O)c1cccc(C(=O)Nc2c(C)cccc2C)c1
[1]
  T/C: 98 % of control
[2]
  T/C: 96 % of control
[3]
  T/C: 111 % of control
[4]
  T/C: 87 % of control
[5]
  T/C: 105 % of control
[6]
  T/C: 86 % of control

## CC(N)C(O)c1cccc(O)c1 (centres undefined)
dose: 6.25 mg/kg/injection, schedule: Q01DX009 (ip), vehicle: saline
  T/C: 117 % of control
[7]
  T/C: 100 % of control
[8]
  T/C: 105 % of control
[9]
  T/C: 108 % of control
[10]
  T/C: 100 % of control
[11]
  T/C: 105 % of control
[12]
  T/C: 117 % of control
[13]
  T/C: 97 % of control

## C/C=C\C(=O)N(CC)C(=NCC)c1ccc(NC(=O)c2ccc(C(=O)Nc3ccc(C(=NCC)N(CC)C(=O)/C=C/C)cc3)cc2)cc1
dose: 0.56 mg/kg/injection, schedule: Q01DX015 (ip), vehicle: methylcellulose (MC)
  T/C: 104 % of control
dose: 1.12 mg/kg/injection, schedule: Q01DX015 (ip), vehicle: methylcellulose (MC)
  T/C: 112 % of control
dose: 2.25 mg/kg/injection, schedule: Q01DX015 (ip), vehicle: methylcellulose (MC)
  T/C: 116 % of control
dose: 4.5 mg/kg/injection, schedule: Q01DX015 (ip), vehicle: methylcellulose (MC)
  T/C: 172 % of control
dose: 6.25 mg/kg/injection, schedule: Q01DX015 (ip), vehicle: methylcellulose (MC)
  T/C: 164 % of control

## S=C(NCc1ccco1)Nc1cccc2ccccc12
dose: 100.0 mg/kg/injection, schedule: Q04DX002 (ip), vehicle: gum acacia
  T/C: 101 % of control
dose: 200.0 mg/kg/injection, schedule: Q04DX002 (ip), vehicle: gum acacia
  T/C: 88 % of control
dose: 400.0 mg/kg/injection, schedule: Q04DX002 (ip), vehicle: gum acacia
  T/C: 98 % of control

## Cn1ncc(C(N)=O)c1N
[12]
  T/C: 100 % of control
dose: 100.0 mg/kg/injection, schedule: Q04DX002 (ip), vehicle: saline
  T/C: 87 % of control
[14]
  T/C: 103 % of control
dose: 200.0 mg/kg/injection, schedule: Q04DX002 (ip), vehicle: saline
  T/C: 87 % of control
dose: 400.0 mg/kg/injection, schedule: Q01DX009 (ip), vehicle: saline
  T/C: 96 % of control
dose: 400.0 mg/kg/injection, schedule: Q04DX002 (ip), vehicle: saline
  T/C: 90 % of control

## ClC1(Cl)c2ccccc2-c2ccccc21
[15]
  T/C: 103 % of control
[16]
  T/C: 113 % of control
[17]
  T/C: 110 % of control

## O=C1C(=O)c2ccccc2C(O)=C1CC=C1CCCCC1
dose: 100.0 mg/kg/injection, schedule: Q01DX001 (ip), vehicle: water
  T/C: 100 % of control
dose: 100.0 mg/kg/injection, schedule: Q01DX009 (ip), vehicle: water
  T/C: 103 % of control
dose: 200.0 mg/kg/injection, schedule: Q01DX009 (ip), vehicle: water
  T/C: 98 % of control
dose: 400.0 mg/kg/injection, schedule: Q01DX001 (ip), vehicle: water
  T/C: 108 % of control

## c1ccc(-c2cc(-c3ccncc3)c(-c3ccccc3)nn2)cc1
dose: 100.0 mg/kg/injection, schedule: Q04DX003 (ip), vehicle: gum acacia
  T/C: 102 % of control
dose: 200.0 mg/kg/injection, schedule: Q04DX003 (ip), vehicle: gum acacia
  T/C: 96 % of control
dose: 400.0 mg/kg/injection, schedule: Q04DX003 (ip), vehicle: gum acacia
  T/C: 96 % of control

## CCNC(=O)c1ccccc1-c1ccccc1C(=O)NCC
dose: 100.0 mg/kg/injection, schedule: Q01DX001 (ip), vehicle: other
  T/C: 104 % of control

## CC(=O)C1CCCC1=O (centres undefined)
dose: 100.0 mg/kg/injection, schedule: Q01DX001 (ip), vehicle: acetone
  T/C: 103 % of control
dose: 100.0 mg/kg/injection, schedule: Q04DX003 (ip), vehicle: acetone
  T/C: 97 % of control
dose: 200.0 mg/kg/injection, schedule: Q01DX001 (ip), vehicle: acetone
  T/C: 97 % of control
dose: 200.0 mg/kg/injection, schedule: Q04DX003 (ip), vehicle: acetone
  T/C: 97 % of control
dose: 400.0 mg/kg/injection, schedule: Q01DX001 (ip), vehicle: acetone
  T/C: 95 % of control
dose: 400.0 mg/kg/injection, schedule: Q04DX003 (ip), vehicle: acetone
  T/C: 95 % of control

## O=c1cc(-c2ccccc2)oc2ccccc12
[1]
  T/C: 97 % of control
[3]
  T/C: 92 % of control
[5]
  T/C: 108 % of control

## Cc1nn2c(C(=O)O)nnc2s1
[18]
  T/C: 93 % of control
[19]
  T/C: 98 % of control
[20]
  T/C: 93 % of control

## CCN(C)CCC(CNC(=O)CN(CC)CC)(c1cccc2ccccc12)C(C)C (centres undefined)
[10]
  T/C: 94 % of control
[12]
  T/C: 91 % of control
[13]
  T/C: 103 % of control
[14]
  T/C: 101 % of control
[21]
  T/C: 103 % of control

## NC1CCCc2ccccc2C1O (centres undefined)
[15]
  T/C: 102 % of control
[16]
  T/C: 104 % of control

## O=C1c2ccccc2C(=O)N1CCOc1ccc([N+](=O)[O-])cc1Cl
[22]
  T/C: 102 % of control
[2]
  T/C: 101 % of control
[4]
  T/C: 100 % of control

## CC(CC(=O)c1ccccc1)C(C(=O)c1ccccc1)c1ccccc1 (centres undefined)
dose: 50.0 mg/kg/injection, schedule: Q01DX009 (ip), vehicle: other
  T/C: 101 % of control
dose: 100.0 mg/kg/injection, schedule: Q01DX009 (ip), vehicle: other
  T/C: 101 % of control
dose: 200.0 mg/kg/injection, schedule: Q01DX009 (ip), vehicle: other
  T/C: 101 % of control

## O=C(NCCCl)Nc1ncccn1
[18]
  T/C: 97 % of control
[19]
  T/C: 106 % of control
[20]
  T/C: 103 % of control

## CN(C)CCCN=C1Nc2ccccc2C(=NCCCN(C)C)Nc2ccccc21
[7]
  T/C: 97 % of control
dose: 12.5 mg/kg/injection, schedule: Q04DX003 (ip), vehicle: saline
  T/C: 102 % of control
[8]
  T/C: 97 % of control
[9]
  T/C: 98 % of control
[10]
  T/C: 94 % of control
[11]
  T/C: 104 % of control

## CCCC(C)Cc1ccc(C(C)=O)cc1 (centres undefined)
[23]
  T/C: 101 % of control
[1]
  T/C: 106 % of control
[2]
  T/C: 104 % of control
[3]
  T/C: 89 % of control
[4]
  T/C: 105 % of control
[6]
  T/C: 105 % of control

## CCC(=O)c1ccc(OC(C)=O)c(OC(C)=O)c1
dose: 50.0 mg/kg/injection, schedule: Q01DX001 (ip), vehicle: saline
  T/C: 101 % of control
[15]
  T/C: 101 % of control
[13]
  T/C: 100 % of control
[16]
  T/C: 109 % of control
[21]
  T/C: 97 % of control
[17]
  T/C: 97 % of control
[24]
  T/C: 100 % of control

## CCN(CC)CCCNC(=S)NC(C)(C)CC(C)=O
[23]
  T/C: 89 % of control
[1]
  T/C: 105 % of control
[13]
  T/C: 97 % of control
[21]
  T/C: 101 % of control
[24]
  T/C: 100 % of control

## O=C(O)[C@H]1CCCC[C@H]1C(=O)O
[22]
  T/C: 98 % of control
[2]
  T/C: 95 % of control
[4]
  T/C: 103 % of control and 106 % of control
[6]
  T/C: 100 % of control

## C(=C\CSc1ccccc1)/CSc1ccccc1
[25]
  T/C: 97 % of control
[26]
  T/C: 94 % of control
dose: 400.0 mg/kg/injection, schedule: Q04DX002 (ip), vehicle: Klucel (hydroxypropylcellulose) (HPC)
  T/C: 97 % of control

## O=C(O)c1c(F)c(F)c(Oc2c(F)c(F)c(F)c(F)c2F)c(F)c1F
[2]
  T/C: 95 % of control
[4]
  T/C: 93 % of control

## O=CN/N=C/c1cc(Cl)cc(Cl)c1O
[2]
  T/C: 100 % of control
[4]
  T/C: 92 % of control
[6]
  T/C: 94 % of control

## CCOC(=O)Nc1ccc(C)c(Cl)c1
[1]
  T/C: 105 % of control
[3]
  T/C: 108 % of control
[5]
  T/C: 103 % of control

## Cc1noc(NS(=O)(=O)c2ccc(N=Nc3ccc(N)nc3N)cc2)c1C
[15]
  T/C: 105 % of control
[16]
  T/C: 98 % of control
[17]
  T/C: 100 % of control

## COc1ccc(C(=O)CCC(=O)O)c2ccccc12
[2]
  T/C: 92 % of control
[4]
  T/C: 93 % of control
[6]
  T/C: 88 % of control

## COC(=O)N(CCCCN(N=O)C(=O)OC)N=O
[25]
  T/C: 101 % of control
[26]
  T/C: 108 % of control
